In PMC9917550, “Discovery of Novel Thiazolidinedione-Derivatives with Multi-Modal Antidiabetic Activities In Vitro and In Silico” (International Journal of Molecular Sciences, 2023):

How the values were obtained:
α-amylase = target: T1, α-amylase (Sus scrofa, UniProt P00690); test: α-amylase inhibition assay; format: biochemical; conditions: 10-50 µg/mL, versus control, p < 0.05
T1 sequence (P00690 16-511): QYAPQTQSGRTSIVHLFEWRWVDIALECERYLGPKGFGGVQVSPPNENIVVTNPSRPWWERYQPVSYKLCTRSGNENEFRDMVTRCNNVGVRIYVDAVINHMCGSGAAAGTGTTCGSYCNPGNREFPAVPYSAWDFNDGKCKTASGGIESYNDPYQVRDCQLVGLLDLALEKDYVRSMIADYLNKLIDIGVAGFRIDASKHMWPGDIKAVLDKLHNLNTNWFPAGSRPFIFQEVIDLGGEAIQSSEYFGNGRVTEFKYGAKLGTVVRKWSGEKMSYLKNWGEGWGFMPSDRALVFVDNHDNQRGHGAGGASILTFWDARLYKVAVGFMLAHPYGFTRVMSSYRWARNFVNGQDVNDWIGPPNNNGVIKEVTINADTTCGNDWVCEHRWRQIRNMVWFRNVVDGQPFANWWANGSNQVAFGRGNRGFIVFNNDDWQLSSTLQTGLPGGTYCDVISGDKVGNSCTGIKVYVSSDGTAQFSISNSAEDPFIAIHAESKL
Description: The α-amylase inhibitory activity was determined using the method described by the Worthington Enzyme Manual with slight modifications. The TZD derivatives were assayed at 10, 20, 30, 40, and 50 µg/mL. […] The sodium phosphate buffer was used as a blank. The inhibitory activity was calculated according to the equation:
Inhibition (%) = ((Acontrol − Asample)/Acontrol) × 100%, where Acontrol was the absorbance of the control (without the inhibitor); Asample was the absorbance in the presence of TZD derivatives.

α-glucosidase [1] = target: T2, α-glucosidase (Saccharomyces cerevisiae, UniProt P53341); format: biochemical
T2 sequence (P53341 whole entry): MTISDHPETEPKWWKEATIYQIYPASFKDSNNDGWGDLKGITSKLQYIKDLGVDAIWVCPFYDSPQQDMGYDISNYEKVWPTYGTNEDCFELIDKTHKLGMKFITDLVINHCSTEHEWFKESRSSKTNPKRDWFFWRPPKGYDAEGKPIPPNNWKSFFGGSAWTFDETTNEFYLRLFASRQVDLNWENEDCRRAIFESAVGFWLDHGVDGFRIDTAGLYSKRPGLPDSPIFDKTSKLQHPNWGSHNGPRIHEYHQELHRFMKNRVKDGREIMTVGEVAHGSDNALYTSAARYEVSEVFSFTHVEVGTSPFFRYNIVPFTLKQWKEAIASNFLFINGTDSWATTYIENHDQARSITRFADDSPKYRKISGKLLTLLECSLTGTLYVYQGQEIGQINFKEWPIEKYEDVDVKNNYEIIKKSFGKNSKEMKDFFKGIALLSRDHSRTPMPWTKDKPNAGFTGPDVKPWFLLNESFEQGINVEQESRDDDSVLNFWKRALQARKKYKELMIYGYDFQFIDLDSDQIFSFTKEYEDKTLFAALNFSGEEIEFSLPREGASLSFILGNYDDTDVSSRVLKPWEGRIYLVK

aldose reductase = aldose reductase (Homo sapiens, UniProt P15121); test: Aldose reductase inhibition assay; format: biochemical; conditions: for aldose reductase inhibitory activity (in words): 10-50 µg/mL, versus control, p < 0.05; for IC50: read-out: IC50 for the Inhibitory Activity Assays, AR (converted)
Description: The aldose reductase (AR) inhibition assay was performed according to the method described by Kazeem et al. with minor modifications. All the TZD derivatives were assayed at 10, 20, 30, 40, and 50 µg/mL. […] The absolute standard contained all the reagents used except for the inhibitor compounds. The aldose reductase inhibition activity was calculated as a percentage inhibition from:
(§1) % Inhibition = [(∆Abscontrol − ∆Abssample)/∆Abscontrol] × 100%, where ∆Abs is the change is absorbance.

[2] = target: T3, protein tyrosine phosphatase-1B (PTP-1B) (Homo sapiens, UniProt P18031); test: Protein tyrosine phosphatase-1B inhibition assay; format: biochemical; conditions: for PTP-1B inhibitory activity (in words): 10-50 µg/mL, versus control; for IC50: read-out: IC50 for the Inhibitory Activity Assays, PTP-1B (converted)
T3 sequence (P18031 1-435): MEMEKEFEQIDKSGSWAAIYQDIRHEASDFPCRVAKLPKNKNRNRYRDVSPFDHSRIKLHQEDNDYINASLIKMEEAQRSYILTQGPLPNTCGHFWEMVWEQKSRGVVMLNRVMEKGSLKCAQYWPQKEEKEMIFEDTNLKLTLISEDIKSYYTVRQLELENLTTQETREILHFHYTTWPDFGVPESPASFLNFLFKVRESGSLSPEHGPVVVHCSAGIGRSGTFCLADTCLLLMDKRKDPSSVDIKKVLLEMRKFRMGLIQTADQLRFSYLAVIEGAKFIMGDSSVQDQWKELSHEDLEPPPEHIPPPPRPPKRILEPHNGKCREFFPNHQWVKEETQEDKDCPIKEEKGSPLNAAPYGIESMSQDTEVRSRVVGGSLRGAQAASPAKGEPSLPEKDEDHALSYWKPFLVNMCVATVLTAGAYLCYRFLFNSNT
Description: The protein tyrosine phosphatase-1B (PTP-1B) inhibition assay was performed according to the method described by Song et al. with some modifications. […] The absolute control contained all the reagents used except the inhibitor compounds. The inhibition activity was calculated using:
as §1

DPP-4 = target: T4, DPP-4 (Homo sapiens, UniProt P27487); test: Dipeptidyl peptidase-4 inhibition assay (DPP-4 Inhibitor Screening Kit); format: biochemical; conditions: for DPP-4 inhibitory activity (in words): 10-50 µg/mL, versus control; for IC50: read-out: IC50 for the Inhibitory Activity Assays, DPP-4 (converted); for DPP-4 inhibition: 10, 20, 30, 40 and 50 µg/mL
T4 construct: purchased Sigma-Aldrich MAK203
T4 sequence (P27487 whole entry, species assumed): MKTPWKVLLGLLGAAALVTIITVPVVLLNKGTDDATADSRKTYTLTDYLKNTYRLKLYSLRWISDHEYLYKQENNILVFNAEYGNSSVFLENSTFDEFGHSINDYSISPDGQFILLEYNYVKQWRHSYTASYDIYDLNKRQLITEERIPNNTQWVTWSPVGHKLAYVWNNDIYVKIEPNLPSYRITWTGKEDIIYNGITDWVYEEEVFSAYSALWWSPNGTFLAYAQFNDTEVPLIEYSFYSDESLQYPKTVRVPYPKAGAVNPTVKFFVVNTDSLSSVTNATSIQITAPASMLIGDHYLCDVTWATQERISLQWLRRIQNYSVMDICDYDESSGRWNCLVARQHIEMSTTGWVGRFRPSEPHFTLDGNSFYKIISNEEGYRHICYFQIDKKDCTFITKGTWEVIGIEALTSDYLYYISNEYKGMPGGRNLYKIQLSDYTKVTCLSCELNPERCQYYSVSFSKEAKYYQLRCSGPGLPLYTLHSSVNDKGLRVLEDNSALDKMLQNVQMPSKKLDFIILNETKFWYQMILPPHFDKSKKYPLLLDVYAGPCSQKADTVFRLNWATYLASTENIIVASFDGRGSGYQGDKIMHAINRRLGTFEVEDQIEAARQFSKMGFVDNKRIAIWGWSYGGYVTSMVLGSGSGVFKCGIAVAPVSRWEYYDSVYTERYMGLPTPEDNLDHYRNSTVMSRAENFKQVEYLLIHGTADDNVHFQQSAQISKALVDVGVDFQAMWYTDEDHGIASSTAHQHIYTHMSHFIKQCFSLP
Description: This assay was performed according to the DPP-4 Inhibitor Screening Kit (catalogue number: MAK203) product information (Sigma-Aldrich.com) with minor modifications to the volumes to suit the 96-well plate assay.

liver cells (HEP-G2) = test: Glucose uptake in liver cells; format: cell-based; conditions: 25, 50 and 100 µg/mL, 24 h, versus control
Description: HEPG-2 liver cells were cultured in MEME supplemented with pen/strep (1%) and FBS (10%) in a […] under tissue culture conditions. Upon confluency (80%), cells were trypsinized and seeded into the 96-well plates. Upon confluency, the cell preparations were exposed to different concentrations (25, 50, and 100 µg/mL) of TZDDs, and a media glucose reading was taken before incubation (time = 0). Thereafter, the plates containing cells and treatments were incubated for 24 h under tissue culture conditions. The non-treated cells and insulin treated cells served as absolute and positive controls, respectively. After a 24 h incubation, the medium glucose was taken using a glucometer. The percentage glucose uptake was calculated as follows:
Glucose uptake (%) = (T24/T0) × 100

α-glucosidase [3] = target: T2, α-glucosidase; test: Mode of inhibition of α-glucosidase (Michaelis-Menten, Lineweaver-Burk); format: biochemical; conditions: substrate pNPG
Description: The Ki values were calculated with GraphPad Prism 9.2.0. (332) by plotting the reciprocal of maximum velocity (1/Vmax) (y-axis) against the derivative concentrations (x-axis). The types of inhibition parameters were all calculated with GraphPad Prism 9.2.0. Briefly, 30 µL of α-glucosidase enzyme (0.5 IU/mL) was dissolved in the 0.02 M phosphate buffer (pH 6.9), and then was pre-incubated at 37 °C with the above-mentioned derivative (50 µL) in a 96-well plate, for 5 min. In sequence, pNPG (0.125, 0.250, 0.500, 0.750, 1.000, 1.500, 2.000, 2.500, and 5.000 mM) was added and incubated in the reaction mixture at 37 °C for 30 min.

Compound	α-amylase inhibitory activity (in words) (α-amylase)	α-glucosidase inhibitory activity (in words) (α-glucosidase [1])	aldose reductase inhibitory activity (in words) (aldose reductase)	IC50 (aldose reductase)	IC50 for the Inhibitory Activity Assays, PTP-1B [2]	PTP-1B inhibitory activity (in words) [2]	DPP-4 inhibitory activity (in words) (DPP-4)	IC50 (DPP-4)	IC50 [2]	DPP-4 inhibition (DPP-4)	Effect on glucose uptake (liver cells (HEP-G2))	Vmax (α-glucosidase [3]; TZDD3 at 60 µg/mL)	Vmax (α-glucosidase [3]; TZDD3 at 120 µg/mL)
C[C@H]1O[C@H](O[C@H]2[C@H](O)[C@@H](O)[C@@H](O[C@H]3[C@H](O)[C@@H](O)C(O)O[C@@H]3CO)O[C@@H]2CO)[C@H](O)[C@@H](O)[C@@H]1N[C@H]1C=C(CO)[C@@H](O)[C@H](O)[C@H]1O (stereo partly drawn) [Acarbose, reference compound]	significant (p < 0.05) inhibitory activity	significant (p < 0.05) inhibitory activity	–	–	–	–	–	–	–	–	–	–	–
O=c1c(O)c(-c2ccc(O)c(O)c2)oc2cc(O)cc(O)c12 [Quercetin, reference compound]	–	–	significant (p < 0.05) inhibitory activity	–	–	–	–	–	–	–	–	–	–
COc1cc(OC)c(/C=C2/SC(=O)N(CC(=O)N3CCN(c4ccccc4)CC3)C2=O)c(OC)c1 [TZDD1, (E)-5-(2,4,6-trimethoxybenzylidene)-3-(2-oxo-2-(4-phenylpiperazin-1-yl)ethyl)thiazolidine-2,4-dione]	showed inhibitory activity	–	concentration-dependent inhibitory activity	55.3 µM	unstable	weak inhibitory activity	very weak inhibitory activity	147 µM	–	–	–	–	–
Cc1cc(/C=C2\SC(=O)N(CC(=O)N3CCCC3)C2=O)c(C)n1-c1ccccc1 [TZDD2, (Z)-5-((2,5-Dimethyl-1phenyl-1H-pyrrol-3-yl)methylene)-3-(2-oxo-2-(pyrrolidin-1-yl)ethyl)thiazolidine-2,4-dione]	showed inhibitory activity	–	–	201 µM	–	weak inhibitory activity	relatively higher activity	78 µM	334 µM	≥ 20%	increase glucose uptake	–	–
Cc1cc(/C=C2\SC(=O)N(CC(=O)O)C2=O)c(C)n1-c1ccccc1 [TZDD3, (Z)-2-(5-((2,5-Dimethyl-1-phenyl-1H-pyrrol-3-yl)methylene)-2,4-dioxothiazolidin-3-yl)acetic Acid]	concentration-dependent inhibitory activity	–	decreasing inhibition activity	161 µM	unstable	–	very weak inhibitory activity	213 µM	–	–	–	59.43	32.76
Cc1cc(/C=C2/S/C(=N\c3ccccc3)NC2=O)c(C)n1-c1ccccc1 [TZDD4, (2Z,5E)-5-((2,5-dimethyl-1-phenyl-1H-pyrrol-3-yl)methylene)-2-(phenylimino)thiazolidin-4-one]	showed inhibitory activity	–	–	98.5 µM	–	weak inhibitory activity	–	192 µM	693 µM	≥ 20%	–	–	–
insulin	–	–	–	–	–	–	–	–	–	–	enhanced glucose uptake	–	–
